Test results published in patent US20240360150A1, “ISOINDOLINONE COMPOUNDS AND USES THEREOF” (HANGZHOU GLUBIO PHARMACEUTICAL CO. LTD., priority 2021, published 2024).

Target: T1, HiBiT-tagged IKZF1 (Homo sapiens, UniProt Q13422+Q96SW2)
T1 construct: expressed in transfected cells; host or cells: HT-1080 (ATCC CCL-121), lentiviral transduction
Test: Degradation assay for IKZF1 (HiBiT tag bioluminescence assay)
Assay type: cell-based
Settings: HT-1080, Table 1; HT-1080 IKZF1 HiBiT reporter cells; maximum percentage of protein degradation
Experimental: (§1) About 10,000 cells in complete DMEM cell culture media were seeded per well. Assay plates were incubated at 37° C. with 5% CO2 for hours, followed by the assessment of IKZF1 or SALL4 degradation using the Nano-Glo HiBiT Lytic Detection Reagent (Cat #N3050, Promega) according to the manufacturer's instruction. Luminescence was then measured with an EnVision plate reader (PerkinElmer) or a PHERAstar plate reader (BMG Labtech). All IKZF1 or SALL4 degradation curves were processed using Collaborative Drug Discovery Vault softwares. IKZF1 or SALL4 levels in compound-treated wells were normalized to that of DMSO control and expressed as Percent of Control (PoC, y). A four Parameter Logistic Model was used to determine the compound's EC50 and DC50, using the following equation:
(§2) A=Ymin (lowest IKZF1 or SALL4 level normalized to DMSO control in response to compound treatment, as determined by curve fit)
(§3) B=Ymax (IKZF1 or SALL4 level in DMSO control)
(§4) C=EC50 half degradation concentration
(§5) EC50=the concentration of compound when y=(Ymax−Ymin)/2
(§6) DC50=test sample concentration when IKZF1 or SALL4 readings y=50% DMSO-treated samples
(§7) y=IKZF1 or SALL4 readings after test sample treatment (normalized to IKZF1 or SALL4 readings in DMSO-treated samples)
(§8) Dmax represents the maximum percentage of IKZF1 or SALL4 protein degradation induced by compound treatment.

T1 sequence (Q13422 whole entry): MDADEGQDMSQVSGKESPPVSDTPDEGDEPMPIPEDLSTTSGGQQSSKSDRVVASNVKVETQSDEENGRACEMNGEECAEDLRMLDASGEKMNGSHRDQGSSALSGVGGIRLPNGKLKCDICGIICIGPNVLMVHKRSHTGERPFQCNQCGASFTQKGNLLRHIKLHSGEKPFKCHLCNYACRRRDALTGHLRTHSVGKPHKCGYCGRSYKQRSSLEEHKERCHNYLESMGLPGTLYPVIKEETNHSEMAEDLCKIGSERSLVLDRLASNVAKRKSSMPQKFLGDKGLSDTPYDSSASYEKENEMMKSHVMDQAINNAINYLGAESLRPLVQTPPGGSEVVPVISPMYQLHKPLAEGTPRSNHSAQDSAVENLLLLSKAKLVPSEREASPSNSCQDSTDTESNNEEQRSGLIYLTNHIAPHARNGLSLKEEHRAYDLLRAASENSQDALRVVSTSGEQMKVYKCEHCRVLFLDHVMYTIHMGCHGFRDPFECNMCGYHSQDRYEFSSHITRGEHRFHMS
T1 sequence (Q96SW2 whole entry): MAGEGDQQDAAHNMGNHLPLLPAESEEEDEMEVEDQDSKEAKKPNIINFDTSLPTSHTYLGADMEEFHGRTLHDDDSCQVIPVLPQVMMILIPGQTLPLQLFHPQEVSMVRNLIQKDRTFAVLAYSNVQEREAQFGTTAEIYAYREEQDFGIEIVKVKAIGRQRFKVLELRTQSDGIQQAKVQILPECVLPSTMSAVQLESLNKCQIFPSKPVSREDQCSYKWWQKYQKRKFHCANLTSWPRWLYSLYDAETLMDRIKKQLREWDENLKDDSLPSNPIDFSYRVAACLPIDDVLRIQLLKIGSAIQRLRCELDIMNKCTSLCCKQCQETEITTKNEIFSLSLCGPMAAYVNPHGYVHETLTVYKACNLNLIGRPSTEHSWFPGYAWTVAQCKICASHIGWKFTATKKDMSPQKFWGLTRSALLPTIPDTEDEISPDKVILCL
T1 sequence (Q16531 whole entry partner): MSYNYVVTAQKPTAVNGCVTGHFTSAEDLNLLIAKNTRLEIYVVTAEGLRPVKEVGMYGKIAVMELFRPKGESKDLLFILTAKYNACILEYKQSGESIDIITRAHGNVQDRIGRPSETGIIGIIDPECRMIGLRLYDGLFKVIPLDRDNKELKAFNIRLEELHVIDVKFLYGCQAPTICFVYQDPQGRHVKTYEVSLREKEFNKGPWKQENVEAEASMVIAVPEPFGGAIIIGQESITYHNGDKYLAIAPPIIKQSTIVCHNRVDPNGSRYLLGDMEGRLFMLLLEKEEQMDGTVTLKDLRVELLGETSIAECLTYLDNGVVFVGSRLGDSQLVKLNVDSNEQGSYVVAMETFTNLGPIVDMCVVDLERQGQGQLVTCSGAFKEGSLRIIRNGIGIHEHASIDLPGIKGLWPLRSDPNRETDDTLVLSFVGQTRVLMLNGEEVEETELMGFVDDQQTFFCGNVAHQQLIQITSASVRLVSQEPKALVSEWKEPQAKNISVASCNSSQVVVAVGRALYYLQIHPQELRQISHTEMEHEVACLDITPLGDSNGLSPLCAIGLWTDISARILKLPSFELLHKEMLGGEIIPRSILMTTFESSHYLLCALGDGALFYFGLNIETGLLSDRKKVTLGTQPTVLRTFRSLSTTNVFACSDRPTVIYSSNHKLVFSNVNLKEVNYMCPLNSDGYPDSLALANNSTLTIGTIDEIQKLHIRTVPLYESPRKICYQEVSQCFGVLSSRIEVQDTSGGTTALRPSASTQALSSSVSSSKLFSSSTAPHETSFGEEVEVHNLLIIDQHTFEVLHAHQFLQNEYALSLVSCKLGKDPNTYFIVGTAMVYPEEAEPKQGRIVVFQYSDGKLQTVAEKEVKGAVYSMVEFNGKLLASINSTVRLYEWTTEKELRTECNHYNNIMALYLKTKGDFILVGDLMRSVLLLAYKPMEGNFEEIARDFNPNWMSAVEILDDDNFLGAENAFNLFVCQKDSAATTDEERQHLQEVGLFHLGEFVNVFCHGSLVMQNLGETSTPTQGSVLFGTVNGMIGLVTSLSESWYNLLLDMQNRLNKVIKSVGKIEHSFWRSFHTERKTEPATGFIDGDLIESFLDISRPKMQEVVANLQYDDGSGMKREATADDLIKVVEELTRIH

SMILES | Dmax
O=C1CCC(N2C(=O)c3cc(F)cc4c(Cc5ccc(CN6CCOCC6)cc5)ccc2c34)C(=O)N1 (stereo not shown) [Compound 12] | 69.3%
CC(C)(C)N1CCN(Cc2ccc(Cc3ccc4c5c(cc(F)cc35)C(=O)N4C3CCC(=O)NC3=O)c(F)c2)CC1 (stereo not shown) [Compound 13] | 87.3%

Same assay, conditions: HT-1080, Table 2; HT-1080 IKZF1 HiBiT reporter cells; all compounds tested on the same day

SMILES | Dmax
N#Cc1ccc(N2CCN(Cc3ccc(Cc4ccc5c6c(ccc(F)c46)C(=O)N5C4CCC(=O)NC4=O)cc3)CC2)c(F)c1 (stereo not shown) [Compound 14] | 89.9%
N#Cc1ccc(N2CCN(Cc3ccc(Cc4ccc5c6c(c(F)ccc46)C(=O)N5C4CCC(=O)NC4=O)cc3)CC2)c(F)c1 (stereo not shown) [Compound 15] | 60.1%
N#Cc1ccc(N2CCN(Cc3ccc(Cc4ccc5c6c(cc(Br)cc46)C(=O)N5C4CCC(=O)NC4=O)cc3)CC2)c(F)c1 (stereo not shown) [Compound 16] | 92.2%
N#Cc1ccc(N2CCN(Cc3ccc(Cc4ccc5c6c(cc(Cl)cc46)C(=O)N5C4CCC(=O)NC4=O)cc3)CC2)c(F)c1 (stereo not shown) [Compound 17] | 41.1%
N#Cc1ccc(N2CCN(Cc3ccc(Cc4ccc5c6c(cccc46)C(=O)N5C4CCC(=O)NC4=O)c(F)c3)CC2)c(F)c1 (stereo not shown) [Compound 18] | 96.1%
O=C1CCC(N2C(=O)c3cccc4c(Cc5ccc(CN6CCOCC6)cc5)ccc2c34)C(=O)N1 (stereo not shown) [Compound 19] | 93.5%
N#Cc1ccc(N2CCN(Cc3ccc(Cc4ccc5c6c(cccc46)C(=O)N5C4CCC(=O)NC4=O)cc3)CC2)c(F)c1 (stereo not shown) [Compound 20] | 96.9%

Same assay, conditions: Table 1; HT-1080 IKZF1 HiBiT reporter cells; maximum percentage of protein degradation

SMILES | HiBiT IKZF1: Dmax
N#Cc1ccc2c(c1)OC[C@H]1CN(Cc3ccc(Cc4ccc5c6c(cccc46)C(=O)N5C4CCC(=O)NC4=O)cc3)CCN21 (stereo partly shown) [Compound 5] | 94.1%

Same assay, conditions: Table 1; HT-1080 IKZF1 HiBiT reporter cells; performed once with technical duplicates, some compounds tested on different days; read-out: HiBiT IKZF1: DC50

SMILES | DC50
N#Cc1ccc2c(c1)OC[C@H]1CN(Cc3ccc(Cc4ccc5c6c(cccc46)C(=O)N5C4CCC(=O)NC4=O)cc3)CCN21 (stereo partly shown) [Compound 5] | 0.017 nM
O=C1CCC(N2C(=O)c3cc(F)cc4c(Cc5ccc(CN6CCOCC6)cc5)ccc2c34)C(=O)N1 (stereo not shown) [Compound 12] | 5.89 nM
CC(C)(C)N1CCN(Cc2ccc(Cc3ccc4c5c(cc(F)cc35)C(=O)N4C3CCC(=O)NC3=O)c(F)c2)CC1 (stereo not shown) [Compound 13] | 1.22 nM

Same assay, conditions: Table 2; HT-1080 IKZF1 HiBiT reporter cells; all compounds tested on the same day

SMILES | Dmax
N#Cc1ccc(N2CCN(Cc3ccc(COc4cccc5c4CN([C@H]4CCC(=O)NC4=O)C5=O)cc3)CC2)c(F)c1 [CC-92480, reference compound] | 95.5%

Same assay, conditions: Table 2; HT-1080 IKZF1 HiBiT reporter cells; all compounds tested on the same day; read-out: HiBiT IKZF1: DC50

SMILES | DC50
N#Cc1ccc(N2CCN(Cc3ccc(Cc4ccc5c6c(ccc(F)c46)C(=O)N5C4CCC(=O)NC4=O)cc3)CC2)c(F)c1 (stereo not shown) [Compound 14] | 1 nM
N#Cc1ccc(N2CCN(Cc3ccc(Cc4ccc5c6c(c(F)ccc46)C(=O)N5C4CCC(=O)NC4=O)cc3)CC2)c(F)c1 (stereo not shown) [Compound 15] | 39.1 nM
N#Cc1ccc(N2CCN(Cc3ccc(Cc4ccc5c6c(cc(Br)cc46)C(=O)N5C4CCC(=O)NC4=O)cc3)CC2)c(F)c1 (stereo not shown) [Compound 16] | 1.23 nM
N#Cc1ccc(N2CCN(Cc3ccc(Cc4ccc5c6c(cc(Cl)cc46)C(=O)N5C4CCC(=O)NC4=O)cc3)CC2)c(F)c1 (stereo not shown) [Compound 17] | > 10 nM
N#Cc1ccc(N2CCN(Cc3ccc(Cc4ccc5c6c(cccc46)C(=O)N5C4CCC(=O)NC4=O)c(F)c3)CC2)c(F)c1 (stereo not shown) [Compound 18] | 0.014 nM
O=C1CCC(N2C(=O)c3cccc4c(Cc5ccc(CN6CCOCC6)cc5)ccc2c34)C(=O)N1 (stereo not shown) [Compound 19] | 0.157 nM
N#Cc1ccc(N2CCN(Cc3ccc(Cc4ccc5c6c(cccc46)C(=O)N5C4CCC(=O)NC4=O)cc3)CC2)c(F)c1 (stereo not shown) [Compound 20] | 0.014 nM

Same assay, conditions: read-out: HiBiT IKZF1: DC50; Table 2; HT-1080 IKZF1 HiBiT reporter cells; all compounds tested on the same day

SMILES | DC50
N#Cc1ccc(N2CCN(Cc3ccc(COc4cccc5c4CN([C@H]4CCC(=O)NC4=O)C5=O)cc3)CC2)c(F)c1 [CC-92480, reference compound] | 0.105 nM

Target: T2, HiBiT-tagged SALL4 (Homo sapiens, UniProt Q96SW2+Q9UJQ4)
T2 construct: expressed in transfected cells; host or cells: HT-1080 (ATCC CCL-121), lentiviral transduction
T2 sequence (Q9UJQ4 whole entry): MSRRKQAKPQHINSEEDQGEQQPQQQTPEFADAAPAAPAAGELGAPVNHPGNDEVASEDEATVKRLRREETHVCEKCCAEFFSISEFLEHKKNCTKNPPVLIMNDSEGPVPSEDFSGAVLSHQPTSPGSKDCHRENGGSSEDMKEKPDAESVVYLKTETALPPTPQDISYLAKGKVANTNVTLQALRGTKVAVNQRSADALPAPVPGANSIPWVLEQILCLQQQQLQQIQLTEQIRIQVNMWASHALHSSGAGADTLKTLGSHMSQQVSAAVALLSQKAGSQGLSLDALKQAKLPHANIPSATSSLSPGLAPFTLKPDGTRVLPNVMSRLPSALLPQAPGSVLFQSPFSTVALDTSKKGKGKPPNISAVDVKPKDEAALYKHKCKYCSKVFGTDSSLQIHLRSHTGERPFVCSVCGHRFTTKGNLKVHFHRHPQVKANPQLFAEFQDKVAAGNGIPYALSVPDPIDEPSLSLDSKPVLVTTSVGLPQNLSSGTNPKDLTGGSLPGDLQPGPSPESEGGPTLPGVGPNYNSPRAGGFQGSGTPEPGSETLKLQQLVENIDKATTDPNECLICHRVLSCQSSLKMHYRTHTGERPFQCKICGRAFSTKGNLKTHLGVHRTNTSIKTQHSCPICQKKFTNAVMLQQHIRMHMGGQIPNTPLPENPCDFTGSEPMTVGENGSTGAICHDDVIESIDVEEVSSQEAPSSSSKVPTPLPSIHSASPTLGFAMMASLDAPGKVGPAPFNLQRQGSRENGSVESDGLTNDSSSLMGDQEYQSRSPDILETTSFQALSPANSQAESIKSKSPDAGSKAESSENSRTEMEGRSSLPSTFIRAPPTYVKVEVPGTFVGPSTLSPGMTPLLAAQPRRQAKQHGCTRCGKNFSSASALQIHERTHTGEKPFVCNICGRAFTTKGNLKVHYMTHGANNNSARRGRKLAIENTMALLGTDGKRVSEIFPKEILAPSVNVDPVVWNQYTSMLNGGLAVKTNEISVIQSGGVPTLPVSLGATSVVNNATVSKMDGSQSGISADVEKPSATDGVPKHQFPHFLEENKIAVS
T2 sequence (Q96SW2 whole entry): as the sequence (Q96SW2 whole entry) above
T2 sequence (Q16531 whole entry partner): as the sequence (Q16531 whole entry partner) above
Test: Degradation assay for SALL4 (HiBiT tag bioluminescence assay)
Assay type: cell-based
Settings: HT-1080, Table 1; HT-1080 SALL4 HiBiT reporter cells; maximum percentage of protein degradation
Experimental: as §1, §2, §3, §4, §5, §6, §7, §8

SMILES | Dmax
O=C1CCC(N2C(=O)c3cc(F)cc4c(Cc5ccc(CN6CCOCC6)cc5)ccc2c34)C(=O)N1 (stereo not shown) [Compound 12] | 32.5%
CC(C)(C)N1CCN(Cc2ccc(Cc3ccc4c5c(cc(F)cc35)C(=O)N4C3CCC(=O)NC3=O)c(F)c2)CC1 (stereo not shown) [Compound 13] | 49.1%

Same assay, conditions: HT-1080, Table 2; HT-1080 SALL4 HiBiT reporter cells; all compounds tested on the same day

SMILES | Dmax
N#Cc1ccc(N2CCN(Cc3ccc(Cc4ccc5c6c(ccc(F)c46)C(=O)N5C4CCC(=O)NC4=O)cc3)CC2)c(F)c1 (stereo not shown) [Compound 14] | 79.3%
N#Cc1ccc(N2CCN(Cc3ccc(Cc4ccc5c6c(c(F)ccc46)C(=O)N5C4CCC(=O)NC4=O)cc3)CC2)c(F)c1 (stereo not shown) [Compound 15] | 28.5%
N#Cc1ccc(N2CCN(Cc3ccc(Cc4ccc5c6c(cc(Br)cc46)C(=O)N5C4CCC(=O)NC4=O)cc3)CC2)c(F)c1 (stereo not shown) [Compound 16] | 65.8%
N#Cc1ccc(N2CCN(Cc3ccc(Cc4ccc5c6c(cc(Cl)cc46)C(=O)N5C4CCC(=O)NC4=O)cc3)CC2)c(F)c1 (stereo not shown) [Compound 17] | 11.4%
N#Cc1ccc(N2CCN(Cc3ccc(Cc4ccc5c6c(cccc46)C(=O)N5C4CCC(=O)NC4=O)c(F)c3)CC2)c(F)c1 (stereo not shown) [Compound 18] | 80.5%
O=C1CCC(N2C(=O)c3cccc4c(Cc5ccc(CN6CCOCC6)cc5)ccc2c34)C(=O)N1 (stereo not shown) [Compound 19] | 64.6%
N#Cc1ccc(N2CCN(Cc3ccc(Cc4ccc5c6c(cccc46)C(=O)N5C4CCC(=O)NC4=O)cc3)CC2)c(F)c1 (stereo not shown) [Compound 20] | 79.3%

Same assay, conditions: Table 1; HT-1080 SALL4 HiBiT reporter cells; maximum percentage of protein degradation

SMILES | HiBiT SALL4: Dmax
N#Cc1ccc2c(c1)OC[C@H]1CN(Cc3ccc(Cc4ccc5c6c(cccc46)C(=O)N5C4CCC(=O)NC4=O)cc3)CCN21 (stereo partly shown) [Compound 5] | 76.5%

Same assay, conditions: Table 1; HT-1080 SALL4 HiBiT reporter cells; performed once with technical duplicates, some compounds tested on different days; read-out: HiBiT SALL4: DC50

SMILES | DC50
N#Cc1ccc2c(c1)OC[C@H]1CN(Cc3ccc(Cc4ccc5c6c(cccc46)C(=O)N5C4CCC(=O)NC4=O)cc3)CCN21 (stereo partly shown) [Compound 5] | 2 nM
O=C1CCC(N2C(=O)c3cc(F)cc4c(Cc5ccc(CN6CCOCC6)cc5)ccc2c34)C(=O)N1 (stereo not shown) [Compound 12] | > 10000 nM
CC(C)(C)N1CCN(Cc2ccc(Cc3ccc4c5c(cc(F)cc35)C(=O)N4C3CCC(=O)NC3=O)c(F)c2)CC1 (stereo not shown) [Compound 13] | > 10000 nM

Same assay, conditions: Table 2; HT-1080 SALL4 HiBiT reporter cells; all compounds tested on the same day

SMILES | Dmax
N#Cc1ccc(N2CCN(Cc3ccc(COc4cccc5c4CN([C@H]4CCC(=O)NC4=O)C5=O)cc3)CC2)c(F)c1 [CC-92480, reference compound] | 75.8%

Same assay, conditions: Table 2; HT-1080 SALL4 HiBiT reporter cells; all compounds tested on the same day; read-out: HiBiT SALL4: DC50

SMILES | DC50
N#Cc1ccc(N2CCN(Cc3ccc(Cc4ccc5c6c(ccc(F)c46)C(=O)N5C4CCC(=O)NC4=O)cc3)CC2)c(F)c1 (stereo not shown) [Compound 14] | 2 nM
N#Cc1ccc(N2CCN(Cc3ccc(Cc4ccc5c6c(c(F)ccc46)C(=O)N5C4CCC(=O)NC4=O)cc3)CC2)c(F)c1 (stereo not shown) [Compound 15] | > 10000 nM
N#Cc1ccc(N2CCN(Cc3ccc(Cc4ccc5c6c(cc(Br)cc46)C(=O)N5C4CCC(=O)NC4=O)cc3)CC2)c(F)c1 (stereo not shown) [Compound 16] | 772 nM
N#Cc1ccc(N2CCN(Cc3ccc(Cc4ccc5c6c(cc(Cl)cc46)C(=O)N5C4CCC(=O)NC4=O)cc3)CC2)c(F)c1 (stereo not shown) [Compound 17] | > 10000 nM
N#Cc1ccc(N2CCN(Cc3ccc(Cc4ccc5c6c(cccc46)C(=O)N5C4CCC(=O)NC4=O)c(F)c3)CC2)c(F)c1 (stereo not shown) [Compound 18] | < 0.3 nM
O=C1CCC(N2C(=O)c3cccc4c(Cc5ccc(CN6CCOCC6)cc5)ccc2c34)C(=O)N1 (stereo not shown) [Compound 19] | 5.2 nM
N#Cc1ccc(N2CCN(Cc3ccc(Cc4ccc5c6c(cccc46)C(=O)N5C4CCC(=O)NC4=O)cc3)CC2)c(F)c1 (stereo not shown) [Compound 20] | < 0.3 nM

Same assay, conditions: read-out: HiBiT SALL4: DC50; Table 2; HT-1080 SALL4 HiBiT reporter cells; all compounds tested on the same day

SMILES | DC50
N#Cc1ccc(N2CCN(Cc3ccc(COc4cccc5c4CN([C@H]4CCC(=O)NC4=O)C5=O)cc3)CC2)c(F)c1 [CC-92480, reference compound] | 3.4 nM

Test system: MM.1S cells
Test: MM.1S cell proliferation assay (CellTiter-Glo)
Assay type: cell-based
Settings: Homo sapiens, MM1.S; antiproliferative, 120 hours incubation, CellTiter-Glo; read-out: MM.1S: IC50
Experimental: About 3,000 cells in 50 μL of culture medium were seeded per well. Assay plates were incubated at 37° C. with 5% CO2 for 120 hours. After that, 20 μL of the CellTiter-Glo Luminescent Cell Viability Assay Reagent (Cat #G7573, Promega) was added to each well and incubated at room temperature for 30 minutes. Luminescence was then measured with an EnVision plate reader (PerkinElmer) or a PHERAstar plate reader (BMG LABTECH). All percentage of cell growth inhibition curves were processed using Collaborative Drug Discovery Vault softwares. Cell viability reads in compound-treated wells were normalized to that of DMSO control and expressed as Percent of Control (PoC, y). A four Parameter Logistic Model was used to determine the compound's EC50 and DC50, using the following equation:
[formula] • wherein, • A=Ymin (lowest cell viability read normalized to DMSO control in response to compound treatment, as determined by curve fit) • B=Ymax (the maximum value, cell viability read in DMSO control) • C=EC50 half inhibitory concentration • D=Hill Slope • x=compound concentration
as §5
y=cell viability read normalized to DMSO control

SMILES | IC50
N#Cc1ccc(N2CCN(Cc3ccc(COc4cccc5c4CN([C@H]4CCC(=O)NC4=O)C5=O)cc3)CC2)c(F)c1 [CC-92480, reference compound] | 0.041 nM

Same assay, conditions: lowest cell viability read normalized to DMSO control, MM.1S, 120 hours

SMILES | Ymin
N#Cc1ccc(N2CCN(Cc3ccc(COc4cccc5c4CN([C@H]4CCC(=O)NC4=O)C5=O)cc3)CC2)c(F)c1 [CC-92480, reference compound] | 7.5 (n = 7) %
